The numbers were not newly measured in article PMC6784077 (Viruses, 2019), which cites them from elsewhere.

Regarding enfuvirtide, the t1/2 was ~ 1.5 h.
